According to patent US9504729B2, “Antiangiogenic small molecules and methods of use” (The United States of America, as represented by the …, priority 2009, dated 2016):

System: angiogenesis genes in dermal microvascular endothelial cells
Assay: Real time RT-PCR of angiogenesis gene expression during endothelial tube formation
Format: cell-based
Settings: 1 μM SM, 24 hours
Description: For gene expression studies, three independent experiments were run for each SM tested. 90.000 cells/well (6 wells/treatment) of dermal microvascular endothelial cells (Lonza, Walkersville, Md.) were seeded on polymerized GELTREX™ gel matrix (Invitrogen, Carlsbad, Calif.) in 24 well plates. Wells were immediately treated with the same volume of 1 μM SM or PBS. After 24 hours incubation at 37° C. and 5% CO2, cells were extracted using Cell Recovery Solution (BD Biosciences, San Jose, Calif., Cat. #354253). Total RNA was extracted with the RNeasy Mini Kit (Qiagen, Valencia, Calif., Cat. #74104), and retrotranscribed using […]® First-Strand reverse transcriptase (Invitrogen, Carlsbad, Calif., Cat. #11904-018). The real time PCR reactions were performed in an Opticon 2 cycler (MJ Research, Waltham, Mass.). Amplification was performed in a final volume of 25 μl, containing 2 μl cDNA (1:10 dilution from the reversed transcribed reaction) and 2 μl of primer mixture (10 μM each of forward and reverse primers). Samples were amplified as follows: after initial denaturation at 95 C for 2 minutes, reactions were run for 46 cycles at 95° C. for 30 seconds, 60° C. for 30 seconds, and 72° C. for 45 seconds. Fluorescence was measured in every cycle and a melting curve was run after the PCR by increasing temperature from 50 to 96° C. (in 0.5° C. increments). A defined single peak was obtained for all amplicons, thus confirming the specificity of the amplification.
The genes that were monitored were selected based on their relevance to the angiogenesis process. All experiments were done in triplicate. The results are shown in the volcano plots of FIG. 17. Log 2 fold-change is presented in the X-axis and log 10 P value in the Y-axis.

## O=C1C(=Cc2ccccc2)C(NC2CCCCC2)c2ccccc21 (centres unmarked) [compound 150117]
  Log2 fold-change of gene expression: 1839: 0.9
  Log2 fold-change of gene expression: 4247: −0.1
  Log2 fold-change of gene expression: 5569: −0.1
  Log2 fold-change of gene expression: 8131: −0.5
  Log2 fold-change of gene expression: 9569: −4.2
  Log2 fold-change of gene expression: 10988: 0.8
  Log2 fold-change of gene expression: 23001: −1.0
  Log2 fold-change of gene expression: 55332: −1.7
  Log2 fold-change of gene expression: 57722: −0.9
  Log2 fold-change of gene expression: 58488: 0.3
  Log2 fold-change of gene expression: 90780: −1.4
  Log2 fold-change of gene expression: 134265: −1.0
  Log2 fold-change of gene expression: AKT1: 1.6
  Log2 fold-change of gene expression: ANGPT1: 1.7
  Log2 fold-change of gene expression: ANGPT2: −1.2
  Log2 fold-change of gene expression: ANGPTL3: 1.8
  Log2 fold-change of gene expression: ANGPTL4: −4.0
  Log2 fold-change of gene expression: ANPEP: −1.7
  Log2 fold-change of gene expression: ANTXR1: −4.2
  Log2 fold-change of gene expression: APOE: −1.0
  Log2 fold-change of gene expression: ARHGEF1: −2.0
  Log2 fold-change of gene expression: Acvrl1: −1.2
  Log2 fold-change of gene expression: Adcy4: −0.5
  Log2 fold-change of gene expression: BAL1: 0.8
  Log2 fold-change of gene expression: BMP1: −0.4
  Log2 fold-change of gene expression: C1orf54: −1.3
  Log2 fold-change of gene expression: CALD1: 1.1
  Log2 fold-change of gene expression: CCL2: 0.9
  Log2 fold-change of gene expression: CCL11: 0.7
  Log2 fold-change of gene expression: CD248: −0.4
  Log2 fold-change of gene expression: CDH5: −1.6
  Log2 fold-change of gene expression: CENTD3: −0.2
  Log2 fold-change of gene expression: CLIC1: 0.0
  Log2 fold-change of gene expression: COL4A3: 2.4
  Log2 fold-change of gene expression: COL18A1: 0.8
  Log2 fold-change of gene expression: COMT: −1.0
  Log2 fold-change of gene expression: CST4: −0.1
  Log2 fold-change of gene expression: CTTNBP2NL: −2.3
  Log2 fold-change of gene expression: CXCL3: 0.8
  Log2 fold-change of gene expression: CXCL5: −3.5
  Log2 fold-change of gene expression: CXCL6: 1.2
  Log2 fold-change of gene expression: CXCL9: 1.2
  Log2 fold-change of gene expression: CXCL10: −1.7
  Log2 fold-change of gene expression: Calcr1: −5.4
  Log2 fold-change of gene expression: Caskin2: −2.7
  Log2 fold-change of gene expression: Ccbp2: 0.4
  Log2 fold-change of gene expression: Cldn5: 0.1
  Log2 fold-change of gene expression: DGKG: 3.4
  Log2 fold-change of gene expression: DKK3: −3.3
  Log2 fold-change of gene expression: DLL4: 5.5
  Log2 fold-change of gene expression: DUT: −0.2
  Log2 fold-change of gene expression: EFNA1: 0.4
  Log2 fold-change of gene expression: EFNA3: −1.8
  Log2 fold-change of gene expression: EFNB2: 0.4
  Log2 fold-change of gene expression: EGF: −2.3
  Log2 fold-change of gene expression: ENG: −0.1
  Log2 fold-change of gene expression: EPHB4: −1.2
  Log2 fold-change of gene expression: EREG: −2.4
  Log2 fold-change of gene expression: ESAM1: −2.6
  Log2 fold-change of gene expression: EXTL3: 0.0
  Log2 fold-change of gene expression: Egf17: −3.3
  Log2 fold-change of gene expression: Ehd4: −0.6
  Log2 fold-change of gene expression: Entpd1: −8.9
  Log2 fold-change of gene expression: Epas1: 0.4
  Log2 fold-change of gene expression: EphB1: 0.7
  Log2 fold-change of gene expression: Erg: −3.2
  Log2 fold-change of gene expression: FGF1: −3.8
  Log2 fold-change of gene expression: FGF2: 0.0
  Log2 fold-change of gene expression: FGFR3: 1.0
  Log2 fold-change of gene expression: FIGF: 2.4
  Log2 fold-change of gene expression: FLT1: −0.5
  Log2 fold-change of gene expression: Fgd5: −1.2
  Log2 fold-change of gene expression: GPCR124: −2.9
  Log2 fold-change of gene expression: GRRP1: 0.0
  Log2 fold-change of gene expression: Grp116: −3.1
  Log2 fold-change of gene expression: HAND2: 1.5
  Log2 fold-change of gene expression: HGF: 1.5
  Log2 fold-change of gene expression: HIF1A: −1.8
  Log2 fold-change of gene expression: HPSE: −0.2
  Log2 fold-change of gene expression: Hspa12b: −3.5
  Log2 fold-change of gene expression: ID1: 0.3
  Log2 fold-change of gene expression: ID3: 0.5
  Log2 fold-change of gene expression: IFNA1: 1.9
  Log2 fold-change of gene expression: IFNB1: 2.1
  Log2 fold-change of gene expression: IFNG: −1.9
  Log2 fold-change of gene expression: IGF1: −0.2
  Log2 fold-change of gene expression: IL1B: 9.5
  Log2 fold-change of gene expression: IL6: 2.2
  Log2 fold-change of gene expression: IL8: 6.0
  Log2 fold-change of gene expression: ITGAV: −1.8
  Log2 fold-change of gene expression: ITGB3: −1.4
  Log2 fold-change of gene expression: Icam1: 0.6
  Log2 fold-change of gene expression: Icam2: 0.0
  Log2 fold-change of gene expression: JAG1: 0.3
  Log2 fold-change of gene expression: KDR: −2.1
  Log2 fold-change of gene expression: Kifc1: −0.1
  Log2 fold-change of gene expression: LAMAS5: −2.2
  Log2 fold-change of gene expression: LECT1: −0.2
  Log2 fold-change of gene expression: LEP: −0.2
  Log2 fold-change of gene expression: Lasts2: 0.3
  Log2 fold-change of gene expression: Lrrk1: −1.8
  Log2 fold-change of gene expression: MDK: −1.5
  Log2 fold-change of gene expression: MMP2: −0.6
  Log2 fold-change of gene expression: MMP9: −0.3
  Log2 fold-change of gene expression: MMP11: −0.2
  Log2 fold-change of gene expression: MRC2: −0.7
  Log2 fold-change of gene expression: Mmm2: −3.4
  Log2 fold-change of gene expression: Myo1b: −2.7
  Log2 fold-change of gene expression: NID1: −5.2
  Log2 fold-change of gene expression: NM023516: 0.6
  Log2 fold-change of gene expression: NRP1: −2.0
  Log2 fold-change of gene expression: NRP2: −3.2
  Log2 fold-change of gene expression: Notch4: −0.7
  Log2 fold-change of gene expression: Npr3: 0.5
  Log2 fold-change of gene expression: PALD: −1.7
  Log2 fold-change of gene expression: PDCD2: −0.9
  Log2 fold-change of gene expression: PDGFA: −0.9
  Log2 fold-change of gene expression: PECAM1: −2.5
  Log2 fold-change of gene expression: PGF: −1.6
  Log2 fold-change of gene expression: PLAU: 0.0
  Log2 fold-change of gene expression: PLG: −3.9
  Log2 fold-change of gene expression: PNMT: −0.4
  Log2 fold-change of gene expression: PROK2: 0.7
  Log2 fold-change of gene expression: PTGS1: 0.3
  Log2 fold-change of gene expression: PTPRCAP: 0.2
  Log2 fold-change of gene expression: Pltp: 0.9
  Log2 fold-change of gene expression: Ptprb: −2.6
  Log2 fold-change of gene expression: Ptprm: −1.4
  Log2 fold-change of gene expression: RAMP2: −4.4
  Log2 fold-change of gene expression: RASD2: −0.1
  Log2 fold-change of gene expression: Rasip1: −1.7
  Log2 fold-change of gene expression: S1PR1: −1.9
  Log2 fold-change of gene expression: SERPINF1: 1.5
  Log2 fold-change of gene expression: SPHK1: 1.2
  Log2 fold-change of gene expression: STAB1: −0.9
  Log2 fold-change of gene expression: Sdc4: 0.2
  Log2 fold-change of gene expression: Sdpr: 0.0
  Log2 fold-change of gene expression: Slc43a3: 0.0
  Log2 fold-change of gene expression: Slco2a1: −2.9
  Log2 fold-change of gene expression: TEK: 0.7
  Log2 fold-change of gene expression: TGFA: 5.3
  Log2 fold-change of gene expression: TGFB1: −1.3
  Log2 fold-change of gene expression: TGFB2: 1.6
  Log2 fold-change of gene expression: TGFBR1: 1.2
  Log2 fold-change of gene expression: THBS1: −0.6
  Log2 fold-change of gene expression: THBS2: 0.9
  Log2 fold-change of gene expression: THY1: −12.7
  Log2 fold-change of gene expression: TIMP1: −0.7
  Log2 fold-change of gene expression: TIMP2: −0.8
  Log2 fold-change of gene expression: TIMP3: −2.7
  Log2 fold-change of gene expression: TNF: 2.4
  Log2 fold-change of gene expression: TNS1: −0.9
  Log2 fold-change of gene expression: TNS3: 0.6
  Log2 fold-change of gene expression: TRA2B: −0.2
  Log2 fold-change of gene expression: TYMP: −1.1
  Log2 fold-change of gene expression: VEGFA: −0.3
  Log2 fold-change of gene expression: VEGFC: 2.0
  Log2 fold-change of gene expression: VGLL4: −3.5
  Log2 fold-change of gene expression: Vwf: −3.7
  Log2 fold-change of gene expression: copa: 0.0
  Log2 fold-change of gene expression: itbp4: −2.5
  Log2 fold-change of gene expression: ralb: −0.7
  Log2 fold-change of gene expression: stard9: 0.1
1st listing (r49)
  Log2 fold-change of gene expression: B2M: 2.8
1st listing (r50)
  Log2 fold-change of gene expression: HPRT1: −0.4
1st listing (r51)
  Log2 fold-change of gene expression: RPL13A: −0.8
1st listing (r52)
  Log2 fold-change of gene expression: GADPH: −1.3
1st listing (r53)
  Log2 fold-change of gene expression: ACTB: −0.9
1st listing (r74)
  Log2 fold-change of gene expression: PLXDC1: −3.2
1st listing (r91)
  Log2 fold-change of gene expression: TNFAIP2: −0.6
1st listing (r95)
  Log2 fold-change of gene expression: Robo4: −0.2
1st listing (r134)
  Log2 fold-change of gene expression: 151516: 0.0
2nd listing (r92)
  Log2 fold-change of gene expression: TNFAIP2: 2.7
2nd listing (r97)
  Log2 fold-change of gene expression: B2M: −1.2
2nd listing (r98)
  Log2 fold-change of gene expression: HPRT1: 0.6
2nd listing (r99)
  Log2 fold-change of gene expression: RPL13A: 0.1
2nd listing (r100)
  Log2 fold-change of gene expression: GADPH: −0.1
2nd listing (r101)
  Log2 fold-change of gene expression: ACTB: −0.6
2nd listing (r104)
  Log2 fold-change of gene expression: PLXDC1: −0.6
2nd listing (r139)
  Log2 fold-change of gene expression: 151516: 0.0
2nd listing (r188)
  Log2 fold-change of gene expression: Robo4: −0.3
3rd listing (r145)
  Log2 fold-change of gene expression: B2M: −0.7
3rd listing (r146)
  Log2 fold-change of gene expression: HPRT1: 1.1
3rd listing (r147)
  Log2 fold-change of gene expression: RPL13A: 0.6
3rd listing (r148)
  Log2 fold-change of gene expression: GADPH: −0.5
3rd listing (r149)
  Log2 fold-change of gene expression: ACTB: −0.5
4th listing (r193)
  Log2 fold-change of gene expression: B2M: −0.8
4th listing (r194)
  Log2 fold-change of gene expression: HPRT1: 0.4
4th listing (r195)
  Log2 fold-change of gene expression: RPL13A: 0.2
4th listing (r196)
  Log2 fold-change of gene expression: GADPH: −0.5
4th listing (r197)
  Log2 fold-change of gene expression: ACTB: −0.2
